In ChEMBL document CHEMBL1201862, “PubChem BioAssay data set” (2004):
Calls of active or inactive are those of the source. Rule as the data show it: actives have a measured IC50 and inactives only a lower limit.

Key:
Assay type in all cases: functional
[1] = biological target: T1, Sentrin-specific protease 8 (Homo sapiens, UniProt Q96LD8); experiment: inhibition of human SENP8 cleavage activity – biochemical, luminescence, SAR follow-up (AID 504501)
T1 sequence (Q96LD8 whole entry): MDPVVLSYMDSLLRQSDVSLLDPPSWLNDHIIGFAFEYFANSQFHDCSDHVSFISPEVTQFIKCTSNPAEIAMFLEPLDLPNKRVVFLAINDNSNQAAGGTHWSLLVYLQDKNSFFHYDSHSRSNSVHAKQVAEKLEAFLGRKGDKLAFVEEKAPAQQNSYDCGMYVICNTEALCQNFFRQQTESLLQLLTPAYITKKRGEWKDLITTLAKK

Caspase-3 [2] = biological target: T2, Caspase-3 (Homo sapiens, UniProt P42574); experiment: inhibition of recombinant caspase-3 activity – biochemical, luminescence, set 2, selectivity assay for SENP protease inhibitor project, SAR follow-up (AID 588599)
T2 sequence (P42574 whole entry): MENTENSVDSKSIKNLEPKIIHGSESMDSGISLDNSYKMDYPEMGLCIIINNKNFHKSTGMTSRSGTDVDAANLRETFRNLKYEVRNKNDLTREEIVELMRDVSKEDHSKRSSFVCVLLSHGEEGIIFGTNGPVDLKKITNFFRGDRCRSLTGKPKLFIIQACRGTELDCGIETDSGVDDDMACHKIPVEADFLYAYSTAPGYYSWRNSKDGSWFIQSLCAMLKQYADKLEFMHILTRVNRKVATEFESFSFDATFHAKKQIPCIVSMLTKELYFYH

[3] = biological target: T1, Sentrin-specific protease 8; experiment: inhibition of sentrin protease 8 – biochemical, luminescence, set 2, SAR follow-up (AID 588601)
Caspase-3 [4] = biological target: T2, Caspase-3; experiment: SAR Analysis of small molecule inhibitors of Sentrin-specific proteases (SENPs) using a Caspase-3 Selectivity assay. [Related pubchem assays (depositor defined):AID2540, AID2599, AID434973, AID489001]
[5] = biological target: T3, Sentrin-specific protease 7 (Homo sapiens, UniProt Q9BQF6); experiment: inhibition of human SENP7 cleavage activity – biochemical, luminescence, set 2, SAR follow-up (AID 588600)
T3 sequence (Q9BQF6 whole entry): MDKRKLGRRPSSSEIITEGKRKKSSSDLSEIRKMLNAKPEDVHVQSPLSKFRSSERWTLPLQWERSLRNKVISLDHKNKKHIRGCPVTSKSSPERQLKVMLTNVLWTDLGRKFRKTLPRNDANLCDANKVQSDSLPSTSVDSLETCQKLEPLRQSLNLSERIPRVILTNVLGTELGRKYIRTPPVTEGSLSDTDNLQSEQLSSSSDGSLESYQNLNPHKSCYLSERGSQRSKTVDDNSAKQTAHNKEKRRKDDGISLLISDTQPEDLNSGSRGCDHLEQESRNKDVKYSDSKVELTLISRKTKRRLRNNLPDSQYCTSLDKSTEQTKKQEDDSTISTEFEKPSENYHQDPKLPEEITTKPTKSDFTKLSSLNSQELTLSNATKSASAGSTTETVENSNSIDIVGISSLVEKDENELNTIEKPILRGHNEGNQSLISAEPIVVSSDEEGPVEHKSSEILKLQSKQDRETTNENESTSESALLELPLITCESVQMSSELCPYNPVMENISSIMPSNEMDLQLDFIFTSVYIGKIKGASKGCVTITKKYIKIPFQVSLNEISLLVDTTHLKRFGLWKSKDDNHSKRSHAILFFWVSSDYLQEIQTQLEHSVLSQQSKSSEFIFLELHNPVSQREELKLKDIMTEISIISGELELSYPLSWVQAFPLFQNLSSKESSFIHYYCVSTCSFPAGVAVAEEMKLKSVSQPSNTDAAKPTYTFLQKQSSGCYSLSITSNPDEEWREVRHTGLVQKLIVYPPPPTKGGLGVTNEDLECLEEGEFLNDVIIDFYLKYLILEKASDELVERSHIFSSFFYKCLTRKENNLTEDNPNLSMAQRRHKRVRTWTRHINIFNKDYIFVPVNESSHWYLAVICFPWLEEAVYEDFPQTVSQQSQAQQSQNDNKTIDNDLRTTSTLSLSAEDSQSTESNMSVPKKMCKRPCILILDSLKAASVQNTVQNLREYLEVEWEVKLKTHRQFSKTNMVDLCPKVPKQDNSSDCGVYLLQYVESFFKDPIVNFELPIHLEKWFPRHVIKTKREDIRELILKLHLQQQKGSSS

[6] = biological target: T4, Sentrin-specific protease 6 (Homo sapiens, UniProt Q9GZR1); experiment: SAR Analysis of small molecule inhibitors of Sentrin-specific protease 6 (SENP6) using a Luminescent assay. [Related pubchem assays (depositor defined):AID2582, AID2599]
T4 sequence (Q9GZR1 whole entry): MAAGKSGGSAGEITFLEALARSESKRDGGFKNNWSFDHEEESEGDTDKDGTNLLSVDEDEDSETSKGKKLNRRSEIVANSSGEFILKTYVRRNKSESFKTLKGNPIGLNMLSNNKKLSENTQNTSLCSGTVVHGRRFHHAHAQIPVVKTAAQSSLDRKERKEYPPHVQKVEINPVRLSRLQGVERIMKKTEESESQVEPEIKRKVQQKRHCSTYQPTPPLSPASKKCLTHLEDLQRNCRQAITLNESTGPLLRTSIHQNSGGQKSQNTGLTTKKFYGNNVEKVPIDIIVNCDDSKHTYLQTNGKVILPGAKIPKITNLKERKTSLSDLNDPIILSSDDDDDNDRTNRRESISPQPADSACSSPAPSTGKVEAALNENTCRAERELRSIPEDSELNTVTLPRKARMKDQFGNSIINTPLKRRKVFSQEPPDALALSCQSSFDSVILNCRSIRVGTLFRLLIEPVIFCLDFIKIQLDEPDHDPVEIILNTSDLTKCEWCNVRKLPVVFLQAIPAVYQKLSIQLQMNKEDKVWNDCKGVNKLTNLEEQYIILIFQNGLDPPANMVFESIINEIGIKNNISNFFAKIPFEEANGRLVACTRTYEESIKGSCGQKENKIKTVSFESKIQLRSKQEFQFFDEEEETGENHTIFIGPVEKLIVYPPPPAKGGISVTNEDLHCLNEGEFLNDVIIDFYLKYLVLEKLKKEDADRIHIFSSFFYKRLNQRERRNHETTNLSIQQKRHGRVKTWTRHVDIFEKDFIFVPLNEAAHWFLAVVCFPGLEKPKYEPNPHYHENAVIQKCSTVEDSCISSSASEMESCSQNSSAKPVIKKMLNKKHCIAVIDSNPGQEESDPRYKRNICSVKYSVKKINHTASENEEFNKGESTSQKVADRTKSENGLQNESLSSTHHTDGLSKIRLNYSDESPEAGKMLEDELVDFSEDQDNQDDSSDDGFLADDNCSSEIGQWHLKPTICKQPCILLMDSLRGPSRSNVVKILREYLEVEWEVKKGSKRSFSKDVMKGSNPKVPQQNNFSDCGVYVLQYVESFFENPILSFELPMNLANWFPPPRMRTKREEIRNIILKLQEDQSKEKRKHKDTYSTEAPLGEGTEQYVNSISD

[7] = biological target: T4, Sentrin-specific protease 6; experiment: inhibition of human SENP6 catalytic domain – biochemical, luminescence, set 2, SAR follow-up (AID 588598)
[8] = biological target: T3, Sentrin-specific protease 7; experiment: inhibition of human SENP7 cleavage activity – biochemical, luminescence, SAR follow-up (AID 504497)

- IC50 (Caspase-3 [2]): 33.5 µM (active)
- IC50 (Caspase-3 [4]): 47 µM (active)
- IC50 [5]: 12.2 µM (active)
- IC50 [6]: 45 µM (active)
- IC50 [7]: 13.5 µM (active)
- IC50 [8]: 14 µM (active)
SMILES: COc1cccc(-c2nc(/C=C/c3ccccc3)no2)c1
- IC50 [1]: 52 µM (active)
- IC50 [3]: 12.2 µM (active)
